Data: patent US6994981B2, “Modulators of paraptosis and related methods” (The Buck Institute, priority 2002, dated 2006)
Counter-ions that a name gives are not always drawn. Starred links: 1 amine or outer side, 2 acyl side, 3 side chain; linkers in the order of their positions; H or OH if unused. Positions of bridges follow the written chain, without caps; N, C: chain ends. Non-standard residues stand in square brackets, D forms with d. Residues, ends and D or L forms follow the SMILES beside them. Chains are numbered I, II in the order given. No end group written: not given here. Actinocin(9to1) = Cc1c2oc3c(C)ccc(C(=O)[*:1])c3nc-2c(C(=O)[*:2])c(N)c1=O; NMeV = CN[C@H](C(=O)O)C(C)C; Sar = CNCC(=O)O

Tests used:
[1] = tested on: striatal, cortical, and hippocampal neurons; experiment: SP-induced cell death in primary striatal, cortical and hippocampal neurons, trypan blue viability and staining; format: cell-based, rat; settings: for effect on neuronal cell death in response to SP: added 30 min before SP: 10 μM PD 98059, 50 nM Calphostin C, 10 μM Rp-8-Br-cAMPS; for effect on SP-induced cell death: 1 μg/ml; for effect on SP-induced cell death / effect on SP-induced neuronal cell death: added at the same time as SP; for effect on SP-induced neuronal cell death: 5 nM L-732,138, 1 nM L-733,060
Procedure: Rat neuronal primary cell cultures were also used to assay for inducers and inhibitors of paraptosis. Briefly, primary striatal, cortical and hippocampal cultures were prepared from 17-day-old Sprague-Dawley rat embryos (B&K). The tissue was dissected, minced and trypsinized for five minutes using 0.25% trypsin (Cell Grow). After the addition of 10% horse serum (Life Technologies) to inhibit the trypsin, the cell suspension was triturated 15–20 times with a 10 ml syringe and centrifuged for five minutes at 800×g. The pellet was resuspended in MEM-PAK (UCSF Cell Culture facility), supplemented with 2.02 gm glucose, 2 mM GLUTAMAX™ (Life Technologies) and penicillin/streptomycin (100 U/ml). The suspension was filtered through a […] cell strainer and the final culture medium contained 5% horse serum. Subsequently, 3-4×10^5 cells per Cm^2 were seeded onto either poly-D-lysine precoated 8-well chamber slides (Becton-Dickson Labware) or 96 well plates precoated with […] of poly-D-lysine (Sigma) in water. After 30 minutes of incubation time, unattached cells were removed together with the medium and replaced with glucose enriched MEM-PAK plus 5% horse serum. The cultures were then incubated at 37° C. in 95% air 5% carbon dioxide with 95% humidity. Cultures were used for experiments between day 1 and day 7 when glial contamination was at a minimum.
Primary neuronal cells were prepared as described in Example I. SP (SIGMA) at a concentration of 0.1 nM–100 μM was added 24–48 hrs after seeding, in the presence of 2.5% horse serum. When the cultures were maintained for more than 5 days, 10 μM cytosine arabinoside was added for 24 hours, beginning 3 days after plating the cells. Viability was quantified by trypan blue staining of the total cell population.
The following compounds were added at the same time as SP in the indicated experiments: 5 nM L-732, 138; 1 nM L-733,060; 1 μg/ml Actinomycin D or 1 μg/ml Cycloheximide. All of these compounds were obtained from SIGMA. The caspase inhibitors zVAD.fmk and BAF were added at 50 μM and obtained from Enzyme System Products, Livermore, Calif.
Either neuronal primary cultures or human embryonic kidney 293T cells were fixed with 4% paraformaldehyde and stained with 0.5 μg/ml DAPI (Molecular Probes) or Hoechst(SIGMA). […]
The protein kinase inhibitors were added 30 min before SP exposure at the following concentrations: 10 μM Rp-8-Br-cAMPS (adenosin 3′,5′-cyclic monophosphorothioate, 8-bromo-, Rp-isomer, sodium salt) which is a PKA inhibitor; 50 nM Calphostin C, which is a PKC inhibitor; 10 μM PD 98059 which is a MAPKK (MEK) inhibitor. These compounds were obtained from Calbiochem. Viability was quantified by trypan blue staining of the total cell population.

[2] = tested on: IGFIR-IC transfected 293T cells; experiment: Inhibition of IGFIR-IC induced paraptosis in transfected 293T cells, LDH assay; format: cell-based, human; settings: added at the time of transfection
Procedure: Paraptosis was induced in 293T cells by expressing the intracellular domain of the insulin-like growth factor I receptor (IGFIR-IC) in these cells using transient transfection as described above.
(§1) Test compounds were added to IGFIR-IC transfected 293T cells at the time of transfection.
The TRAF2 dominant negative mutant contains a deletion of the amino terminal 271 amino acids of the protein. The ratio of IGFIR-IC:AIP1 and IGFIR-IC:TRAF2DN was 1:3. […] Antisense oligonucleotide constructs for JNK1 or JNK2 (50–100 nM) were transfected into 293T cells one day before transfection with the IGFIR-IC construct. For all inhibition assays, cell viability was measured using the LDH assay.

293T cells = experiment: Induction of paraptosis in 293T cells, LDH cell death assay; format: cell-based, human; settings: for induction of paraptosis when expressed: pcDNA3 construct transiently transfected into 293T cells
Procedure: Human embryonic kidney 293T cell line cells were used to assay for inducers and inhibitors of paraptosis. These cells were cultured in high glucose DMEM (Life Technologies) supplemented with 10% FBS (Sigma) and 1% penicillin/streptomycin (Life Technologies). The cultures were incubated at 37° C. in 95% air 5% carbon dioxide with 95% humidity.
Subsequently, compounds were added to 293T cells and/or rat neuronal primary cell culture cells in order to determine if the compounds could induce paraptosis. Cell death was assayed using the lactate dehydrogenase (LDH) assay, in which the relative amount of enzyme released from dying cells in the medium is measured by following the disappearance of nicotinamide adenine dinucleotide, reduced form (NADH) in the following reaction: pyruvate+NADH <−>NAD^++ lactate. Briefly, 50 μl of culture medium for either 293T cells or 100 μl of culture medium for neuronal primary culture were dispensed in a 96 well plate to which 100 μl of a solution consisting of 5 mg of NADH dissolved in 20 ml of PBS and 0.5 ml of 100 mM NaPyruvate. NADH disappearance was assessed by kinetic photmetric readings at a 340 nm wavelength at 19 minute intervals over a period of 2 hours and 30 minutes.
Constructs of pcDNA3 containing procaspase-7 or procaspase-8 were transiently transfected into 293T cells using Lipofect-Amine (GIBCO-BRL) according to the manufacturer's instructions. Briefly, 1×10^6 293T cells were seeded in 6 cm dishes, and transfected the next day using a ratio of DNA:Lipofect-Amine of 1 μg:5 μl. Transfection efficiency was 60–80% for 293T cells, as determined by X-gal staining after transfection of a β-galactosidase construct.

[3] = tested on: caspases, calpains, proteasome; experiment: Protease activation during SP-induced cell death, substrate hydrolysis in cytosolic extracts of NK1R-transfected 293T cells; format: biochemical, human; settings: added to cytosolic extract of NK1R-transfected 293T cells
Procedure: Preparation of cell-free extract for kinetic studies: 293T cells seeded at the density of 2 million cells per 10 cm dish were transfected with NK1R cDNA using Lipofectamine 2000 (Gibco) according the instructions provided by the manufacturer. After 24 hr 10 nM SP was added to half of the culture dishes. At 24 hr later the cells were washed with ice cold PBS and collected with a cell scraper. The cells pelleted at 700×g for 4 min were resuspended in cell lysis buffer at pH 7.4 containing 1 mM dithiothreitol at a ratio of 1:1 (v/v). After 30 min on ice the swelled cells were disrupted with 20 strokes using a 27 gauge needle and further spun at 16,000×g for 30 min. The pellet was discarded and the supernatant which represents the cytosolic fraction was aliquoted and stored at −80° C. or used in the kinetic studies. The protein concentration was determined using the Bradford assay (Pierce).
For kinetic studies, the proteolytic activities were followed fluorometrically by monitoring AFC or AMC release from 100 μM of the corresponding substrates (Enzyme Systems Products): Caspase-1 like, Ac-YVAD-AFC; caspase-2, Ac-VDVAD-AFC; caspases-3 like, Ac-DEVD-AFC; caspase-6, Ac-VEID-AFC; caspase-8, Ac-IETD-AFC; caspase-9, Ac-LEHD-AFC. Calpain activity was monitored with 100 μM Suc-LY-AFC (succinyl-Leu-Tyr-7-amino-4-methylcoumarin, Enzyme Systems Products) at 5 μM and 5 mM CaCl2. The chymotrypsin activity of the proteasome was followed with 100 μM Suc-LLVY-AFC (succinyl-Leu-Leu-Val-Tyr-7-amino-4-methylcoumarin, Enzyme Systems Products), and cathepsins were assayed using 20 μM Z-FR-AMC (Benzyloxycarbonyl-Phe-Arg-7-amino-4-methylcoumarin, Bachem). A 10 μl aliquot of extract in the presence or absence of SP was added to 90 μl of substrate at the appropriate concentration and pH. The reaction was continuously monitored during 30 min and 37° C. in a fluorescence microplate reader (Molecular Devices). The instrument was set at excitation and emission wavelengths of 405 and 510 for AFC releasing group, and 370 and 460 nm, for AMC releasing group, respectively. The steady-state hydrolysis rates were obtained from the linear part of the curves.

[4] = tested on: paraptosis induced by caspase 7, caspase 8 or caspase 9; experiment: Inhibition of paraptosis induced by caspases; format: cell-based
Procedure: as §1

## Calphostin C
[1]
  effect on neuronal cell death in response to SP: no protective effect

## O=S(=O)(NCCNC/C=C/c1ccc(Br)cc1)c1cccc2cnccc12 [H89]
[2]
  concentration able to inhibit IGFIR-IC induced paraptosis: 10 to 20 µM

## Nc1ncnc2c1nc(Br)n2C1OC2COP(O)(=S)OC2C1O (single isomer, unassigned) [Rp-8-Br-cAMPS, adenosin 3′,5′-cyclic monophosphorothioate, 8-bromo-, Rp-isomer, sodium salt]
[1]
  effect on neuronal cell death in response to SP: no protective effect

## Cc1c2oc3c(C)ccc(C(=O)N[C@@H]4C(=O)N[C@H](C(C)C)C(=O)N5CCC[C@H]5C(=O)N(C)CC(=O)N(C)[C@@H](C(C)C)C(=O)O[C@@H]4C)c3nc-2c(C(=O)N[C@@H]2C(=O)N[C@H](C(C)C)C(=O)N3CCC[C@H]3C(=O)N(C)CC(=O)N(C)[C@@H](C(C)C)C(=O)O[C@@H]2C)c(N)c1=O [actinomycin D] (I: T[dV]P[Sar][NMeV] / II: T[dV]P[Sar][NMeV]; ester I:1-I:C, II:1-II:C; linker I:N-II:N via Actinocin(9to1))
[1]
  effect on SP-induced cell death: prevented

## Tumor Necrosis Factor-α
293T cells; 293T cells
  concentration at which found to induce paraptosis: 1 to 10 ng/mL

## granzyme B: serine protease that activates procaspase-3
[3]
  increase of DEVDase activity: 7 fold

## CC(=O)N[C@@H](Cc1c[nH]c2ccccc12)C(=O)OCc1cc(C(F)(F)F)cc(C(F)(F)F)c1 [L-732,138]
[1]
  effect on SP-induced neuronal cell death: inhibited SP-induced cell death

## C[C@@H]1C[C@@H]([C@H](O)CC2CC(=O)NC(=O)C2)C(=O)[C@@H](C)C1 [cyclohexamide]
[1]
  effect on SP-induced cell death: prevented

## D form of SP: D isomer of substance P ([dR][dP][dK][dP][dQ][dQ][dF][dF]G[dL][dM]; ends and bridges not checked)
[1]; L or D isomer
  effect of SP isomer on neuronal cell death: no effect on cell death

## FC(F)(F)c1cc(CO[C@H]2CCCN[C@H]2c2ccccc2)cc(C(F)(F)F)c1 [L-733,060]
[1]
  effect on SP-induced neuronal cell death: inhibited SP-induced cell death

## neurokinin A: NK1R agonist that does not exhibit mitochondrial toxicity (HKTDSFVGLM; ends and bridges not checked; UniProt P20366 98-107, looked up)
[1]; compared with SP
  induction of cell death by NK1R agonists: able to induce cell death as well as SP

## c1cnc2c(c1)ccc1cccnc12 [1–10-phenantroline]
[2]
  concentration able to inhibit IGFIR-IC induced paraptosis: 0.05 µM
[4]
  inhibition of paraptosis induced by caspase 8: able to inhibit paraptosis
  inhibition of paraptosis induced by caspase 9: able to inhibit paraptosis

B1: procaspase-8: procaspase-8 expressed in 293T cells from a pcDNA3 construct (protein, UniProt Q14790 1-479, looked up)
pro-form: MDFSRNLYDIGEQLDSEDLASLKFLSLDYIPQRKQEPIKDALMLFQRLQEKRMLEESNLSFLKELLFRINRLDLLITYLNTRKEEMERELQTPGRAQISAYRVMLYQISEEVSRSELRSFKFLLQEEISKCKLDDDMNLLDIFIEMEKRVILGEGKLDILKRVCAQINKSLLKIINDYEEFSKERSSSLEGSPDEFSNGEELCGVMTISDSPREQDSESQTLDKVYQMKSKPRGYCLIINNHNFAKAREKVPKLHSIRDRNGTHLDAGALTTTFEELHFEIKPHDDCTVEQIYEILKIYQLMDHSNMDCFICCILSHGDKGIIYGTDGQEAPIYELTSQFTGLKCPSLAGKPKVFFIQACQGDNYQKGIPVETDSEEQPYLEMDLSSPQTRYIPDEADFLLGMATVNNCVSYRNPAEGTWYIQSLCQSLRERCPRGDDILTILTEVNYEVSNKDDKKNMGKQMPQPTFTLRKKLVFPSD
modifications: pro-form
notes: procaspase-8 expressed in 293T cells from a pcDNA3 construct
293T cells
  induction of paraptosis when expressed: able to induce paraptosis

B2: procaspase-7: procaspase-7 expressed in 293T cells from a pcDNA3 construct (protein, UniProt P55210 2-303, looked up)
pro-form: ADDQGCIEEQGVEDSANEDSVDAKPDRSSFVPSLFSKKKKNVTMRSIKTTRDRVPTYQYNMNFEKLGKCIIINNKNFDKVTGMGVRNGTDKDAEALFKCFRSLGFDVIVYNDCSCAKMQDLLKKASEEDHTNAACFACILLSHGEENVIYGKDGVTPIKDLTAHFRGDRCKTLLEKPKLFFIQACRGTELDDGIQADSGPINDTDANPRYKIPVEADFLFAYSTVPGYYSWRSPGRGSWFVQALCSILEEHGKDLEIMQILTRVNDRVARHFESQSDDPHFHEKKQIPCVVSMLTKELYFSQ
modifications: pro-form
notes: procaspase-7 expressed in 293T cells from a pcDNA3 construct
293T cells
  induction of paraptosis when expressed: able to induce paraptosis
